Experimental data: US20050209295A1, “Methimazole derivatives and tautomeric cyclic thiones to inhibit cell adhesion” (priority 2004, published 2005)

Columns and labels:
Assay type in all cases: cell-based, human
VCAM-1 = test: TNF-alpha-induced VCAM-1 RNA levels in aortic endothelial cells (Northern blot); conditions: for % INHIBITION of TNF-alpha-induced VCAM-1 RNA levels: aortic endothelial cells, mean ± SD
Experimental: (§1) Cell culture and treatment of HAEC: Human aortic endothelial cells (HAEC; Cambrex Bio Science Walkersville, Inc., Walkersville, Md.) are cultured in M199 supplemented with 8% FBS, 100 μg/ml heparin, 10 ng/ml endothelial growth factor, 100 μg/ml hypothalamus extract, 2 mM L-glutamine, 1% non-essential amino acids, 100 units/ml penicillin and 100 μg/ml streptomycin. HAEC are subcultured on gelatin pre-coated: 96-well tissue culture plates (Corning Incorporated; Corning, N.Y.) for viability assays and ELISA; 100-mm tissue culture dishes (BD Falcon; Franklin Lakes, N.J.) for Northern blot analyses, Western blot analyses and EMSA; 35-mm tissue culture dishes (Corning) for adhesion assays and on 24-well tissue culture plates for luciferase promoter assays (BD Falcon). All experiments are performed with confluent HAEC monolayers. Unless noted otherwise, HAEC are treated with 25 ng/ml TNF-α, in the absence or presence of C-10 or 0.25% DMSO (carrier control for C-10), for 2-24 hrs. The concentration of DMSO is held constant at 0.25% (unless indicated otherwise) for all of the C-10 conditions.
(§2) HAEC are washed with PBS and total RNA extracted using a commercial kit (RNeasy Mini Kit; Qiagen Inc.; Valencia, Calif.). 12 μg of total RNA per lane is resolved on 1% denaturing agarose gels containing 0.66M formaldehyde. Gels are capillary blotted on Nytran membranes (Schleicher and Schuell Inc.; Keene, N.H.), UV cross-linked, and used for hybridization. The probe for IRF-1 has been previously described (33). The G3PDH cDNA is from Clontech (Palo Alto, Calif.). […]; cDNAs are labeled with α-^32P-dCTP using the Ladderman Labeling Kit (Takara Biochemical Inc.; Berkeley, Calif.) (33). Northern blots are developed using a BAS 1500 Bioimaging Analyzer (Fuji Photo Film Co., Ltd. Medical Systems USA Inc.; Stanford, Calif.). Each experiment is replicated at least twice.

IRF-1 = test: TNF-alpha-induced IRF-1 RNA levels (Northern blot); conditions: for % INIHIBITION of TNF-alpha-induced IRF-1 RNA levels: mean ± SD
Experimental: as §1, §2

ICAM-1 [1] = test: ELISA of TNF-α induced ICAM-1 protein on HAEC
Experimental: as §1, with “The concentration of DMSO is held constant at 0.25% (unless indicated otherwise) for all of the C-10 conditions.” left out
HAEC are washed with cold HBSS+, fixed in 1% formaldehyde at 4° C. for 20 min., washed with cold HBSS+, and incubated in cold M199 containing 8% FBS. […] Following a 10 min. incubation at room temperature, the absorbance of the fluid in each well is determined at 450 nm using a micro-well plate spectrophotometer (Molecular Devices; Sunnyvale, Calif.). […]

ICAM-1 [2] = test: TNF-α induced ICAM-1 mRNA in HAEC (Northern blot)
Experimental: as §1
HAEC are washed with PBS and total RNA extracted using a commercial kit (RNeasy Mini Kit; Qiagen Inc.; Valencia, Calif.). 12 μg of total RNA per lane is resolved on 1% denaturing agarose gels containing 0.66M formaldehyde. […]

NF-κB = test: EMSA of TNF-α induced NF-κB binding activity to VCAM-1 promoter; conditions: 0.5 mM; 2 hr. TNF-α; HAEC nuclear extract
Experimental: Nuclear Extracts and EMSA: Nuclear extracts are prepared from harvested HAEC using NE-PER® extraction reagents (Pierce Chemical Co.; Rockford, Ill.) in the presence of a protease inhibitor cocktail (PMSF, Leupeptin, Pepstatin-A). Oligonucleotides (Biosynthesis Inc.; Lewisville, Tex.) are annealed and precipitated double stranded oligonucleotides end labeled with γ-^32P-ATP using T4 polynucleotide kinase enzyme. Binding reactions (20 min., room temperature) included ^32P-labeled probe (activity 100,000 cpm), 3-6 μg HAEC nuclear extract, 1 μg poly(dI-dC), 1 mM DTT, 10% glycerol and 1× binding buffer. Binding buffer (10×) for NF-κB EMSA is 200 mM HEPES-KOH (pH7.9), 340 mM KCl, 50 mM MgCl2, 5 mM EDTA (pH 8.0), 1% Triton X-100. Binding buffer (10×) for IRF-1 EMSA is 100 mM Tris-HCL (pH 7.5), 500 mM NaCl, 50 mM MgCl2, 10 mM EDTA (pH 8.0). In competition studies, nuclear extracts are incubated with 100 fold molar excess of unlabeled double stranded oligonucleotide. In supershift studies, nuclear extracts are incubated with 2 μg of appropriate antibodies. After the incubations, reaction mixtures are electrophoresed (160V, room temperature) on 5% non-denaturing polyacrylamide gels containing 5% glycerol in 1×TBE (50 mM Tris, 50 mM boric acid, and 1 mM EDTA). Gels are dried and autoradiographed. Each experiment is replicated at least twice. […]

Compound: Cn1c(-c2ccccc2)cnc1S [5-Phenylmethimazole]
- % INHIBITION of TNF-alpha-induced VCAM-1 RNA levels (VCAM-1; 5.0 mM): 99 ± 3%
- % INHIBITION of TNF-alpha-induced VCAM-1 RNA levels (VCAM-1; 10 :M): 75 ± 7%
- % INHIBITION of TNF-alpha-induced VCAM-1 RNA levels (VCAM-1; 100 :M): 99 ± 4%
- effect on TNF-α induced VCAM-1 mRNA expression (VCAM-1; 2 hr. TNF-α, HAEC, Northern blot): reduced, in a dose-dependent manner
- effect on TNF-α induced VCAM-1 mRNA (VCAM-1; 24 hr. TNF-α, HAEC, Northern blot): reduced, in a dose dependent manner
- effect on TNF-α induced IRF-1 mRNA expression in HAEC (IRF-1; 0.5 mM or 1 mM, 2 hr. TNF-α): reduces
- % INIHIBITION of TNF-alpha-induced IRF-1 RNA levels (IRF-1; 5 mM): 95 ± 15%
- % INIHIBITION of TNF-alpha-induced IRF-1 RNA levels (IRF-1; 10 :M): 65 ± 16%
- % INIHIBITION of TNF-alpha-induced IRF-1 RNA levels (IRF-1; 100 :M): 90 ± 17%
- effect on TNF-α induced protein expression of ICAM-1 (ICAM-1 [1]; 4 hr. TNF-α): little to no effect
- effect on TNF-α induced protein expression of ICAM-1 (ICAM-1 [1]; 24 hr. TNF-α): no effect
- effect on TNF-α induced ICAM-1 mRNA expression (ICAM-1 [2]; 2 hr. TNF-α): no effect
- effect on TNF-α induced ICAM-1 mRNA expression (ICAM-1 [2]; 24 hr. TNF-α): little to no effect
- effect on TNF-α dependent NF-κB complex formation (EMSA) (NF-κB): no effect
